# Source: US6737383B1, “Herbicidal oxadiazolidines” (priority 1999, dated 2004)
# Assays:
# wild oat = experiment: Test B pre/postemergence wild oat; assay type: in vivo, Avena fatua
# Procedure, shortened: (§1)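 Herbicidal effect was estimated by eye on a ten-point control scale after plants spent twelve to sixteen days in a greenhouse following soil or foliar treatment. Foliar sprays targeted plants at one to four leaves; all doses were formulated in a non-phytotoxic solvent with surfactant.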
# crabgrass = experiment: Test B pre/postemergence crabgrass; assay type: in vivo, Digitaria sanguinalis
# Procedure, shortened: as §1
# wheat = experiment: Test B pre/postemergence wheat; assay type: in vivo, Triticum aestivum
# Procedure, shortened: as §1
# rice = experiment: Test B flood test rice; assay type: in vivo, Oryza sativa; conditions: for Plant response rating, Rice (0 to 10 scale, 0 is no effect, 10 is complete control) / Rice plant response rating (0 to 10 scale, 0 is no effect, 10 is complete control): flood test species, visual evaluation after twelve to sixteen days; for Plant response rating, Rice (0 to 10 scale, 0 is no effect, 10 is complete control): Pre-emergence; for Rice plant response rating (0 to 10 scale, 0 is no effect, 10 is complete control): under heading Pre-emergence
# Procedure, shortened: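 Flood test on plants grown to the 2-leaf stage; treated plants kept in greenhouse twelve to sixteen days, then visually rated against controls on a 0 (no effect) to 10 (complete control) scale.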
# [1] = Postemergence, Rate 62 g/ha, scale 0 to 10, 0 is no effect, 10 is complete control
# [2] = Postemergence, Rate 125 g/ha, scale of 0 to 10 where 0 is no effect and 10 is complete control
# [3] = Preemergence, Rate 62 g/ha, scale of 0 to 10 where 0 is no effect and 10 is complete control
# [4] = Preemergence, Rate 125 g/ha, scale of 0 to 10 where 0 is no effect and 10 is complete control
# [5] = Preemergence, Rate 250 g/ha, scale 0 to 10 (0 no effect, 10 complete control)
# [6] = Preemergence, Rate 500 g/ha, scale of 0 to 10 where 0 is no effect and 10 is complete control
# [7] = Rate 500 g/ha, Postemergence, scale 0 to 10, 0 is no effect, 10 is complete control
# [8] = Postemergence, Rate 250 g/ha, scale of 0 to 10, 0 is no effect, 10 is complete control
# [9] = Rate 250 g/ha, Pre-emergence (flood test species), scale 0 to 10, 0 is no effect, 10 is complete control
# [10] = Rate 500 g/ha, Pre-emergence section of Table B, 0 to 10 scale (0 no effect, 10 complete control)
# [11] = Postemergence, Rate 500 g/ha, scale of 0 to 10 where 0 is no effect and 10 is complete control
# [12] = Preemergence, Rate 62 g/ha, scale 0 to 10 (0 no effect, 10 complete control)
# [13] = Postemergence, Rate 250 g/ha, scale 0 to 10, 0 no effect, 10 complete control
# [14] = Preemergence, Rate 125 g/ha, scale 0 to 10 (0 no effect, 10 complete control)
# [15] = Preemergence, Rate 250 g/ha, scale of 0 to 10 where 0 is no effect and 10 is complete control
# [16] = Preemergence, Rate 500 g/ha, scale 0 (no effect) to 10 (complete control)
# [17] = Rate 125 g/ha, Postemergence, scale 0 to 10, 0 no effect, 10 complete control
# [18] = Rate 500 g/ha, Postemergence, scale 0 to 10, 0 no effect, 10 complete control
# [19] = Preemergence, Rate 62 g/ha, scale 0 to 10, 0 is no effect, 10 is complete control
compound,measurement,setting,value
C#CC(C)n1c(=O)on(C(=O)N(c2ccc(Cl)cc2)C(C)C)c1=O (racemic) [Compound 658],"Plant response rating, Wild oats",wild oat; [1],1
same,Wild oats plant response rating,wild oat; [2],1
same,Wild oats plant response rating,wild oat; [3],0
same,Wild oats plant response rating,wild oat; [4],2
same,"Plant response rating, Wild oats",wild oat; [5],3
same,"Plant response rating, Wild oats",wild oat; [6],4
same,Wild oats plant response rating,wild oat; [7],2
same,"Plant response rating, Crabgrass",crabgrass; [1],0
same,Crabgrass plant response rating,crabgrass; [2],2
same,Crabgrass plant response rating,crabgrass; [8],2
same,Crabgrass plant response rating,crabgrass; [3],3
same,Crabgrass plant response rating,crabgrass; [4],7
same,"Plant response rating, Crabgrass",crabgrass; [5],8
same,"Plant response rating, Crabgrass",crabgrass; [6],9
same,"Plant response rating, Wheat",wheat; [1],0
same,Wheat plant response rating,wheat; [2],0
same,Wheat plant response rating,wheat; [3],0
same,Wheat plant response rating,wheat; [4],0
same,"Plant response rating, Wheat",wheat; [5],0
same,"Plant response rating, Wheat",wheat; [6],3
same,Wheat plant response rating,wheat; [7],0
same,"Plant response rating, Rice (0 to 10 scale, 0 is no effect, 10 is complete control)",rice; Rate 62 g/ha,0
same,"Rice plant response rating (0 to 10 scale, 0 is no effect, 10 is complete control)",rice; Rate 125 g/ha,0
same,Rice plant response rating,rice; [9],0
same,Rice plant response rating,rice; [10],0
CCC(C)n1c(=O)on(C(=O)N(c2ccccc2)C(C)C)c1=O (centres unmarked) [Compound 610],"Plant response rating, Wild oats",wild oat; [1],0
same,"Plant response rating, Wild oats",wild oat; [2],3
same,Wild oats plant response rating,wild oat; [8],5
same,"Plant response rating, Wild oats",wild oat; [11],9
same,Wild oats plant response rating,wild oat; [12],5
same,Wild oats plant response rating,wild oat; [4],6
same,"Plant response rating, Wild oats",wild oat; [6],10
same,"Plant response rating, Crabgrass",crabgrass; [1],9
same,"Plant response rating, Crabgrass",crabgrass; [2],9
same,Crabgrass plant response rating,crabgrass; [8],9
same,"Plant response rating, Crabgrass",crabgrass; [11],9
same,Crabgrass plant response rating,crabgrass; [12],9
same,Crabgrass plant response rating,crabgrass; [4],10
same,"Plant response rating, Crabgrass",crabgrass; [6],10
same,"Plant response rating, Wheat",wheat; [1],0
same,"Plant response rating, Wheat",wheat; [2],1
same,Wheat plant response rating,wheat; [8],4
same,"Plant response rating, Wheat",wheat; [11],5
same,Wheat plant response rating,wheat; [12],2
same,Wheat plant response rating,wheat; [4],2
same,"Plant response rating, Wheat",wheat; [6],6
same,"Plant response rating, Rice (0 to 10 scale, 0 is no effect, 10 is complete control)",rice; Rate 62 g/ha,0
same,"Rice plant response rating (0 to 10 scale, 0 is no effect, 10 is complete control)",rice; Rate 125 g/ha,0
same,Rice plant response rating,rice; [9],2
same,Rice plant response rating,rice; [10],8
CCC(C)n1c(=O)on(C(=O)N(c2ccccc2)C(C)C)c1=O (centres unmarked) [Compound 611],"Plant response rating, Wild oats",wild oat; [1],0
same,"Plant response rating, Wild oats",wild oat; [2],2
same,Wild oats plant response rating,wild oat; [8],4
same,"Plant response rating, Wild oats",wild oat; [11],7
same,Wild oats plant response rating,wild oat; [12],5
same,Wild oats plant response rating,wild oat; [4],7
same,"Plant response rating, Wild oats",wild oat; [6],8
same,"Plant response rating, Crabgrass",crabgrass; [1],8
same,"Plant response rating, Crabgrass",crabgrass; [2],8
same,Crabgrass plant response rating,crabgrass; [8],9
same,"Plant response rating, Crabgrass",crabgrass; [11],9
same,Crabgrass plant response rating,crabgrass; [12],9
same,Crabgrass plant response rating,crabgrass; [4],10
same,"Plant response rating, Crabgrass",crabgrass; [6],10
same,"Plant response rating, Wheat",wheat; [1],0
same,"Plant response rating, Wheat",wheat; [2],0
same,Wheat plant response rating,wheat; [8],2
same,"Plant response rating, Wheat",wheat; [11],8
same,Wheat plant response rating,wheat; [12],1
same,Wheat plant response rating,wheat; [4],3
same,"Plant response rating, Wheat",wheat; [6],7
same,"Plant response rating, Rice (0 to 10 scale, 0 is no effect, 10 is complete control)",rice; Rate 62 g/ha,0
same,"Rice plant response rating (0 to 10 scale, 0 is no effect, 10 is complete control)",rice; Rate 125 g/ha,0
same,Rice plant response rating,rice; [9],0
same,Rice plant response rating,rice; [10],2
Cc1cccc(Cl)c1-n1c(=O)on(C(=O)N(c2ccc(F)cc2)C(C)C)c1=O [Compound 53],Wild oats plant response rating,wild oat; [1],0
same,Wild oats plant response rating,wild oat; [13],0
same,"Plant response rating, Wild oats",wild oat; [14],0
same,"Plant response rating, Wild oats",wild oat; [15],0
same,Wild oats plant response rating,wild oat; [16],0
same,Wild oats plant response rating,wild oat; [17],0
same,Wild oats plant response rating,wild oat; [18],2
same,Crabgrass plant response rating,crabgrass; [1],1
same,Crabgrass plant response rating,crabgrass; [13],6
same,"Plant response rating, Crabgrass",crabgrass; [19],3
same,"Plant response rating, Crabgrass",crabgrass; [14],5
same,"Plant response rating, Crabgrass",crabgrass; [15],7
same,Crabgrass plant response rating,crabgrass; [16],10
same,Crabgrass plant response rating,crabgrass; [17],4
same,Crabgrass plant response rating,crabgrass; [18],10
same,Wheat plant response rating,wheat; [1],0
same,Wheat plant response rating,wheat; [13],0
same,"Plant response rating, Wheat",wheat; [19],0
same,"Plant response rating, Wheat",wheat; [14],0
same,"Plant response rating, Wheat",wheat; [15],0
same,Wheat plant response rating,wheat; [16],0
same,Wheat plant response rating,wheat; [17],0
same,Wheat plant response rating,wheat; [18],0
same,Rice plant response rating,rice; [1],0
same,Rice plant response rating,"rice; Rate 125 g/ha, Postemergence section (flood test species), scale 0 to 10, 0 no effect, 10 complete control",0
same,Rice plant response rating,"rice; Rate 500 g/ha, listed under Postemergence (flood test species), scale 0 to 10, 0 no effect, 10 complete control",0
same,Rice plant response rating,"rice; flood test, listed under Postemergence, Rate 250 g/ha, scale 0 to 10, 0 no effect, 10 complete control",0
CC(C)N(C(=O)n1oc(=O)n(CC2CCCCO2)c1=O)c1ccc(Cl)cc1 (centres unmarked) [Compound 660],"Plant response rating, Wild oats",wild oat; [1],0
same,Wild oats plant response rating,wild oat; [2],0
same,Wild oats plant response rating,wild oat; [3],0
same,Wild oats plant response rating,wild oat; [4],0
same,"Plant response rating, Wild oats",wild oat; [5],2
same,"Plant response rating, Wild oats",wild oat; [6],3
same,Wild oats plant response rating,wild oat; [7],0
same,"Plant response rating, Crabgrass",crabgrass; [1],0
same,Crabgrass plant response rating,crabgrass; [2],1
same,Crabgrass plant response rating,crabgrass; [8],5
same,Crabgrass plant response rating,crabgrass; [3],4
same,Crabgrass plant response rating,crabgrass; [4],7
same,"Plant response rating, Crabgrass",crabgrass; [5],8
same,"Plant response rating, Crabgrass",crabgrass; [6],9
same,Crabgrass plant response rating,crabgrass; [7],7
same,"Plant response rating, Wheat",wheat; [1],0
same,Wheat plant response rating,wheat; [2],0
same,Wheat plant response rating,wheat; [3],0
same,Wheat plant response rating,wheat; [4],0
same,"Plant response rating, Wheat",wheat; [5],0
same,"Plant response rating, Wheat",wheat; [6],0
same,Wheat plant response rating,wheat; [7],0
same,"Plant response rating, Rice (0 to 10 scale, 0 is no effect, 10 is complete control)",rice; Rate 62 g/ha,0
same,"Rice plant response rating (0 to 10 scale, 0 is no effect, 10 is complete control)",rice; Rate 125 g/ha,0
same,Rice plant response rating,rice; [9],0
same,Rice plant response rating,rice; [10],0
